Format in all cases: in vivo
The subject of test [1] is Setaria viridis. Description: greenhouse pre-emergence treatment, SETVI. To be noted: SETVI. An outline of the steps: (§1)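 Seeds were sown per species in pots of loamy sand with about 3.0% humus, sprayed with the aqueous spray liquor directly after sowing, watered and hooded until rooted, then kept at 10-25° C. or 20-35° C. for 2 to 4 weeks. Damage was scored 0 (none) to 100 (no emergence/complete destruction).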

Test [2] relates to BRAPL. As to the kind of experiment: greenhouse pre-emergence treatment, BRAPL. As to conditions: Table X9, 21 DAT.
Test [3] has as its system Ambrosia elatior. As to the kind of experiment: greenhouse pre-emergence treatment, AMBEL. To be noted: Ambrosia artemisiifolia, 480 h, terbuthylazin solo (SC 500 g/l), 500 gai/ha, 20 DAT, AMBEL. In a few lines:
as §1

Test [4] concerns Digitaria sanguinalis. Description: greenhouse pre-emergence treatment, DIGSA. As to conditions: Digitaria sanguinalis, sc, 480 h, DIGSA, 20 DAT. In a few lines: as §1
In test [5] the test system is Echinocloa crus-galli. As to the kind of experiment: greenhouse pre-emergence treatment, ECHCG. As to conditions: 20 DAT; for % activity: terbuthylazin solo (SC 500 g/l). An excerpt:
(§2) The culture containers used were plastic pots containing loamy sand with approximately 3.0% of humus as substrate. The seeds of the test plants were sown separately for each species.
(§3) For the pre-emergence treatment, the active compounds, suspended or emulsified in water, were applied directly after sowing by means of finely distributing nozzles. The containers were irrigated gently to promote germination and growth and subsequently covered with transparent plastic hoods until the plants had rooted. This cover caused uniform germination of the test plants unless this was adversely affected by the active compounds.
(§4) Depending on the species, the plants were kept at 10-25° C. and 20-35° C., respectively.
(§5) The test period extended over 2 to 4 weeks. During this time, the plants were tended and their response to the individual treatments was evaluated.
(§6) Evaluation was carried out using a scale from 0 to 100. 100 means no emergence of the plants, or complete destruction of at least the above-ground parts, and 0 means no damage or normal course of growth. A good herbicidal activity is given at values of at least 70, and very good herbicidal activity is given at values of at least 85.
(§7) The respective stated components A and B, and if appropriate, C were formulated as a 10% by weight strength emulsion concentrate and, with addition of the amount of solvent system, introduced into the spray liquor used for applying the active compound. In the examples, the solvent used was water.
(§8) In the examples below, using the method of S. R. Colby (1967) “Calculating synergistic and antagonistic responses of herbicide combinations”, Weeds 15, p. 22ff., the value E, which is expected if the activity of the individual active compounds is only additive, was calculated. E=X+Y−(X·Y/100) where X=effect in percent using herbicide A at an application rate a; • Y=effect in percent using herbicide B at application rate b; • E=expected effect (in %) of herbicide A+herbicide B at application rates a+b.

For test [6], the system named is Polygonum convolvulus. Description: greenhouse pre-emergence treatment, POLCO. As to conditions: Fallopia convolvulus, 480 h, 20 DAT, POLCO. In a few lines: as §1
Test [7] relates to Avena fatua. As to the kind of experiment: greenhouse pre-emergence treatment, AVEFA. To be noted: Avena fatua, 480 h, AVEFA, 20 DAT, solo terbuthylazin (SC 500 g/l) 500 gai/ha. In a few lines:
as §1

In test [8] the test system is Lolium multiflorum. As to the kind of experiment: greenhouse pre-emergence treatment, LOLMU. To be noted: Lolium multiflorum, 480 h, LOLMU, 20 DAT. In a few lines: as §1
Test [9] deals with Bromus sterilis. As to the kind of experiment: greenhouse pre-emergence treatment, BROST. As to conditions: Bromus sterilis, 480 h, BROST, 20 DAT. An outline of the steps: as §1
The test system of test [10] is Alopecurus myosuroides. Description: greenhouse pre-emergence treatment, ALOMY. As to conditions: Alopecurus myosuroides, 480 h, 20 DAT, solo terbuthylazin (SC 500 g/l) 250 gai/ha. An outline of the steps:
as §1

Test [11] concerns Stellaria media. Description: greenhouse pre-emergence treatment, STEME. As to conditions: Stellaria media, 480 h, 20 DAT, solo terbuthylazin (SC 500 g/l) 62.5 gai/ha.
From the text: as §2, §3, §4, §5, §6, §7, §8

The test system of test [12] is Poa annua. As to the kind of experiment: greenhouse pre-emergence treatment, POAAN. To be noted: Poa annua, 480 h, 20 DAT; for inhibition at 500000 µg/mL (stock): sc.
From the text: as §2, §3, §4, §5, §6, §7, §8

Test [13] has as its system Lolium perenne. Description: greenhouse post-emergence treatment, LOLPE. To be noted: solo terbuthylazin (SC 500 g/l) 125 gai/ha, 20 DAT, 2nd series of rows. As for the experimental part: as §2
To this end, the test plants were either sown directly, and grown in the same containers, or they were first grown separately as seedlings and transplanted into the test containers a few days prior to treatment.
as §4, §5, §6
In the examples, the solvent used was water.
In the examples below, using the method of S. R. Colby (1967) “Calculating synergistic and antagonistic responses of herbicide combinations”, Weeds 15, p. […] E=X+Y−(X·Y/100) where X=effect in percent using herbicide A at an application rate a; • Y=effect in percent using herbicide B at application rate b; • E=expected effect (in %) of herbicide A+herbicide B at application rates a+b.

Test [14] has as its system Apera spica-venti. Description: greenhouse pre-emergence treatment, APESV. To be noted: Apera spica-venti, sc, 480 h, 20 DAT. In a few lines: as §1
For test [15], the system named is Papaver rhoeas. As to the kind of experiment: greenhouse pre-emergence treatment, PAPRH. As to conditions: 20 DAT.
From the text: as §2, §3, §4, §5, §6, §7, §8

Test [16] deals with Galium aparine. Description: greenhouse pre-emergence treatment, GALAP. To be noted: Galium aparine, 480 h, solo, EC 800 g/l, GALAP, 500 gai/ha, 20 DAT. In a few lines: as §1
Test [17] deals with Brachiaria decumbens. Description: greenhouse pre-emergence treatment, BRADC. As to conditions: Urochloa decumbens, 480 h, 20 DAT, BRADC. In a few lines: as §1
In test [18] the test system is Matricaria chamomilla. As to the kind of experiment: greenhouse pre-emergence treatment, MATCH. As to conditions: Matricaria chamomilla, 480 h, 20 DAT.
From the text: as §2, §3, §4, §5, §6, §7, §8

Setting [19] is: solo terbuthylazin (SC 500 g/l) 125 gai/ha.
The mark [20] stands for this setting: solo terbuthylazin (SC 500 g/l) 250 gai/ha.
[21] abbreviates: sc, solo terbuthylazin (SC 500 g/l) 250 gai/ha.
[22] abbreviates: sc, solo terbuthylazin (SC 500 g/l) 500 gai/ha.
[23] abbreviates: solo terbuthylazin (SC 500 g/l) 62.5 gai/ha.
Where [24] appears, read: prosulfocarb solo 250 gai/ha, read-out: % activity.

On to `O=C(Nc1ccc(F)cc1F)c1cccnc1Oc1cccc(C(F)(F)F)c1` [diflufenican], for which the “% activity” value in [1] (Table X9, 21 DAT, solo diflufenican (SC 500 g/l) 60 gai/ha) was found to be 70%; in test [2] (solo diflufenican (SC 500 g/l) 15 gai/ha), 0%; in test [2] (solo diflufenican (SC 500 g/l) 30 gai/ha), 0%; in test [2] (solo diflufenican (SC 500 g/l) 120 gai/ha), 20%.
By pest or weed control is commonly meant how far the test organism was held down. In the case of `CCNc1nc(Cl)nc(NC(C)(C)C)n1` [terbuthylazin, terbuthylazine], the pest or weed control at 500000 µg/mL, 500 g/ha in test [3] stood at 65%; in [6] (terbuthylazin solo (SC 500 g/l), 500 gai/ha), 65%. The inhibition at 500000 µg/mL (stock) is 0% in test [1] (Setaria viridis, 480 h, 20 DAT, solo terbuthylazin (SC 500 g/l) 250 gai/ha); 0% in [4] (setting [19]); 0% in [4] (setting [20]); 0% in [6] (setting [21]); 0% in test [8] (sc, solo terbuthylazin (SC 500 g/l) 125 gai/ha); 10% in test [8] (setting [21]). The inhibition at 500000 µg/mL (stock) came to 0% in [9] (setting [20]); 40% in test [10]; 70% in test [11]; 0% in test [12] (setting [23]); 30% in [12] (setting [19]); 70% in test [12] (setting [20]). Moreover, the inhibition at 500000 µg/mL (stock) in test [14] (setting [23]) is 0%; in test [14] (setting [19]), 50%. For the same compound, the “% activity” value in test [1] (terbuthylazin solo (SC 500 g/l), 62.5 gai/ha, 20 DAT) is 0%; in test [1] (terbuthylazin solo (SC 500 g/l), 125 gai/ha, 20 DAT), 0%; in test [1] (terbuthylazin solo (SC 500 g/l), 250 gai/ha, 20 DAT), 0%; in test [5] (62.5 gai/ha), 0%; in [5] (125 gai/ha), 0%; in [13] it was 35%. Further, the inhibition at 500000 µg/mL in test [4] (solo terbuthylazin (SC 500 g/l) 500 gai/ha) came out at 20%; in [5] (Echinochloa crus-galli, 480 h, solo terbuthylazin (SC 500 g/l) 500 gai/ha) it was 0%; in [6] (setting [22]), 65%; in [7] it was 0%; in test [8] (setting [22]), 35%.
For `CCCN(CCC)C(=O)SCc1ccccc1` [prosulfocarb], the inhibition at 250 g/ha in [1] (Setaria viridis, 480 h, prosulfocarb solo 250 gai/ha, 20 DAT) was found to be 40%; in test [6] (setting [24]) it was 0%; in test [18] (prosulfocarb solo 250 gai/ha), 0%; in test [8] (prosulfocarb solo 250 gai/ha), 30%; in test [9] (setting [24]) it was 0%. In addition, the inhibition at 1000 g/ha in [1] (Setaria viridis, 480 h, prosulfocarb solo 1000 gai/ha, 20 DAT) is 85%; in test [15] (Papaver rhoeas, 480 h, prosulfocarb solo 1000 gai/ha) it was 70%; in [6] (prosulfocarb solo 1000 gai/ha), 80%; in test [18] (prosulfocarb solo 1000 gai/ha), 65%; in [9] (prosulfocarb solo 1000 gai/ha) it was 50%. Further, the “% activity” value in test [1] (solo, EC 800 g/l, 125 gai/ha, 20 DAT) is reported as 10%; in test [15] (solo, EC 800 g/l, 1000 gai/ha) it was 70%. Also, the pest or weed control at 500 g/ha in test [16] was 30%. In addition, the % herbicidal activity (weed control, 0-100 scale) at 250 g/ha in [17] (prosulfocarb solo 250 gai/ha) was 0%. Moreover, the % herbicidal activity (weed control, 0-100 scale) at 500 g/ha in [17] (prosulfocarb solo 500 gai/ha) was determined as 20%. Also, the inhibition at 500 g/ha in test [9] (prosulfocarb solo 500 gai/ha) was found to be 40%. Moreover, in test [12] (prosulfocarb solo 125 gai/ha), the inhibition at 125 g/ha came to 0%.

Source of the values: patent publication US10966426B2, “Herbicidal compositions comprising phenylpyrimidines” (BASF SE, priority 2016, dated 2021).
